From ChEMBL document CHEMBL5252667, “Discovery and Optimization of a Novel Macrocyclic Amidinourea Series Active as Acidic Mammalian Chitinase Inhibitors” (ACS Med Chem Lett, 2023) come the findings set out here.

Series [1] addresses T1, Chitotriosidase-1 (Homo sapiens, UniProt Q13231). Kind of series: Inhibition of human CHIT1 using 4-methylumbelliferyl-beta-D-N,N',N''-triacetylchitotriose as substrate assessed as substrate hydrolysis by measuring inhibition constant preincubated with compound for 20 mins and measured immediately after substrate addition by fluorescence based assay relative to control.
Target sequence in this assay (Q13231 whole entry): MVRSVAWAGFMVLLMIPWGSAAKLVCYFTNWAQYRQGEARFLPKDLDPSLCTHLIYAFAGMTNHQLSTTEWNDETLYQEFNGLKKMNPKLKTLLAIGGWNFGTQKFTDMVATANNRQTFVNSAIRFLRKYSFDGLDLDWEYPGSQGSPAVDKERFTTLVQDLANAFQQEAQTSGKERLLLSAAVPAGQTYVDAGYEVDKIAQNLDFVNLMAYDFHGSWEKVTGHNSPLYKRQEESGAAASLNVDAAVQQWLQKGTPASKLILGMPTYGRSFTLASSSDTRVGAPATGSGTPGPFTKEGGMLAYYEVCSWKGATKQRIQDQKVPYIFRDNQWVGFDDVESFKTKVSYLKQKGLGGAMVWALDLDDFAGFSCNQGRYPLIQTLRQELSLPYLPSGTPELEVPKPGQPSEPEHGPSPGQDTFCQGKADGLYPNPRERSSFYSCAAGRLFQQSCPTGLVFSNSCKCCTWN
For series [2], the target named is T1, Chitotriosidase-1. Kind of series: Inhibition of human CHIT1 using 4-methylumbelliferyl-beta-D-N,N',N''-triacetylchitotriose as substrate assessed as substrate hydrolysis at 10 uM preincubated with compound for 20 mins and measured immediately after substrate addition by fluorescence based assay relative to control.
Target sequence in this assay (Q13231 22-466 limits assumed): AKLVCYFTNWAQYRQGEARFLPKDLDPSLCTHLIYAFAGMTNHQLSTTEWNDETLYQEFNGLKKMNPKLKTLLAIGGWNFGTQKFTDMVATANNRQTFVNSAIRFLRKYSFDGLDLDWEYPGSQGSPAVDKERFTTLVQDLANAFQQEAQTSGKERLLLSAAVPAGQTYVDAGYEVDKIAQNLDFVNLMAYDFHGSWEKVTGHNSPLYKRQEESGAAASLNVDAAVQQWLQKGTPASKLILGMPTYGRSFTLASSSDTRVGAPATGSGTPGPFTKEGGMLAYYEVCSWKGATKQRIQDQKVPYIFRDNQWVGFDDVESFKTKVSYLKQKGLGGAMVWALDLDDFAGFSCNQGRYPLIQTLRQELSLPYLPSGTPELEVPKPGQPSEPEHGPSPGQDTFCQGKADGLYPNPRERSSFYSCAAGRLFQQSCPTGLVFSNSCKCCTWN
Series [3] addresses Acidic mammalian chitinase (Homo sapiens, UniProt Q9BZP6). Kind of series: Inhibition of human AMCase using 4-methylumbelliferyl-beta-D-N,N',N''-triacetylchitotriose as substrate assessed as substrate hydrolysis by measuring inhibition constant preincubated with compound for 20 mins and measured immediately after substrate addition by fluorescence based assay.
The subject of series [4] is Candida. Put plainly: Antifungal activity against Candida spp. It is filed as functional.
Series [5] is described as follows: Apparent permeability of compound in phosphate buffer by PAMPA assay. It is filed as ADME. (In general: The PAMPA barrier holds no transporters, so it reflects passive diffusion.)
Series [6] is described as follows: Aqueous solubility of the compound by HPLC-UV/MS analysis. It is filed as physicochemical. The conditions noted are these: water (aqueous).
A short description of series [7]: Metabolic stability in human liver microsomes assessed as parent compound remaining in the presence of NADPH generating system by HPLC-UVMS analysis. It is filed as ADME, Microsome. On the technique in general: Liver microsomes are a subcellular fraction often used to study metabolism.

Each structure is given as a SMILES string. ≈ marks a conversion by molar mass, not a printed value.

Sequence of Acidic mammalian chitinase (Q9BZP6 whole entry): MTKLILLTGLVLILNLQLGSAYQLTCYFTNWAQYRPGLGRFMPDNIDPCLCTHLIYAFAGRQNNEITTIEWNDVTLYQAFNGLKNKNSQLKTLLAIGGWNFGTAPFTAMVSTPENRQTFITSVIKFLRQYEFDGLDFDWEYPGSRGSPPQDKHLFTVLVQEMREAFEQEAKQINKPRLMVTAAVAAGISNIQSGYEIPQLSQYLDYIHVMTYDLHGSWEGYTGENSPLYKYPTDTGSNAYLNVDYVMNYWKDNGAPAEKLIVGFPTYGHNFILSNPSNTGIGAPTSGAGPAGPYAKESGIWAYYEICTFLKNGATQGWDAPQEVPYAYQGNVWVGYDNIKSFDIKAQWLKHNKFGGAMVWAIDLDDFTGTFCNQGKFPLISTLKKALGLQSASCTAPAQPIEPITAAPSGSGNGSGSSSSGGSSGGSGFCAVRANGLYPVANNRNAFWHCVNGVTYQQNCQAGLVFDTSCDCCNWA

As for `CNC(=O)NC(=N)NCCCCCCCCN1CCCc2ccccc2COc2cc(C)ccc2CNC(=N)NC1=O`, in series [1], the Ki is greater than 50 µM.
In the case of `Cn1cnc2c1c(=O)n(CCCn1c(=O)c3nc[nH]c3n(C)c1=O)c(=O)n2C`, the inhibition in series [2] amounted to 98%. In addition, the Ki in series [3] is 0.26 µM; in series [1] it was 0.0014 µM.
In series [4], `C/C=C/CNC(=N)NCCCCCCCCN1CCCCCCCCNC(=N)NC1=O` had an MIC of 1 µg/mL (≈ 0.0023 mM).
`CNC(=S)NC(=N)NCCCCCCCCN1CCCCCCOc2ccccc2CNC(=N)NC1=O`: the Ki in series [1] is greater than 50 µM.
Same read-out and setting: in the case of `CNC(=O)NC(=N)NCCCCCCCCN1CCCc2ccccc2COc2cc(Cl)ccc2CNC(=N)NC1=O` it was greater than 50 µM.
In the case of `CNC(=O)NC(=N)NCCCCCCCCN1CCCc2cc(Cl)ccc2COc2ccccc2CNC(=N)NC1=O`, in series [5], the Papp is less than 0.5 ×10⁻⁶ cm/s. In addition, the solubility in series [6] was found to be 23100 µg/mL (≈ 38.6 mM). Moreover, the Stability in series [7] is on record as 91.5%.
`C/C=C/CNC(=N)NCCCCCCCCN1CCCc2ccccc2COc2ccccc2CNC(=N)NC1=O` had an MIC in series [4] of 1 µg/mL (≈ 0.00178 mM).
As for `CNC(=O)NC(=N)NCCCCCCCCN1CCCCCOc2ccccc2CNC(=N)NC1=O`, in series [5], the Papp is less than 0.5 ×10⁻⁶ cm/s. In series [6], this compound yielded a solubility of 1810 µg/mL (≈ 3.6 mM). In addition, the Stability in series [7] was 80.9%.
Consider `CNC(=O)NC(=N)NCCCCCCCCN1CCCc2ccc(OC(F)(F)F)cc2COc2ccccc2CNC(=N)NC1=O`, for which the Ki in series [3] was greater than 50 µM.
Take `CNC(=O)NC(=N)NCCCCCCCCN1CCCc2ccccc2COc2ccccc2CNC(=N)NC1=O`: in series [5], the Papp was less than 0.5 ×10⁻⁶ cm/s. This compound also yielded a solubility in series [6] of 2010 µg/mL (≈ 3.57 mM). In addition, in series [7], the Stability turned out to be 76.2%.
With `CNC(=O)NC(=N)NCCCCCCCCN1CCCc2ccccc2COc2ccc(OC)cc2CNC(=N)NC1=O`, the Papp in series [5] is less than 0.5 ×10⁻⁶ cm/s. In addition, the solubility in series [6] is 3080 µg/mL (≈ 5.17 mM). In series [7], the Stability was 98.7%.
`CNC(=O)NC(=N)NCCCCCCCCN1CCCCCCCCNC(=N)NC1=O`: the inhibition constant Ki in series [1] is greater than 50 µM.
For the compound `CNC(=O)NC(=N)NCCCCCCCCN1CCCc2ccc(F)cc2COc2ccccc2CNC(=N)NC1=O`, the Papp in series [5] was less than 0.5 ×10⁻⁶ cm/s. This compound came in with a solubility in series [6] of 2850 µg/mL (≈ 4.9 mM). Also, the Stability in series [7] came to 98.5%.
In turn, `C/C=C/CNC(=N)NCCCCCCCCN1CCCCCCOc2ccccc2CNC(=N)NC1=O` yielded an MIC in series [4] of 1 µg/mL (≈ 0.00195 mM).

The Ki is the dissociation constant of the complex between target and ligand, obtained from inhibition or displacement. The term inhibition denotes the share of the control response that was lost under treatment. What is called MIC is the lowest concentration found to suppress growth. Low values mean a more susceptible organism, high ones a less susceptible organism. The term Papp denotes a coefficient for how fast a substance crosses the barrier. For orientation: solubility means the concentration that dissolves in the medium under given conditions.
